Reference: PubChem BioAssay AID330 (DTP/NCI, 2004)
Inconclusive results and toxic doses are left out.

System: P388 leukemia ip, CD2F1 mice, survival T/C
Assay: NCI In Vivo Anticancer Drug Screen. Data for tumor model P388 Leukemia (intraperitoneal) in CD2F1 (CDF1) mice
Conditions: endpoint: median survival time, schedule: Q01DX005 (ip), higher = longer survival
Description: The antitumor activity of compounds was measured in mice bearing transplantable tumors. Survival or tumor size were measured and the results are expressed as the measurement made in the treated group (T) divided by the measurement made in the vehicle treated control group (C). The tumor model used in this assay is P388 Leukemia (intraperitoneal) in CD2F1 (CDF1) mice

[1] = dose: 50.0 mg/kg/injection, vehicle: Klucel (hydroxypropylcellulose) (HPC)
[2] = dose: 100.0 mg/kg/injection, vehicle: Klucel (hydroxypropylcellulose) (HPC)

Structure (SMILES) | T/C [1] | T/C [2] | T/C (dose: 200.0 mg/kg/injection, vehicle: Klucel (hydroxypropylcellulose) (HPC)) | T/C (dose: 60.0 mg/kg/injection, vehicle: saline with Tween-80) | T/C (dose: 120.0 mg/kg/injection, vehicle: saline with Tween-80)
CC(C)NC1CCC(Nc2ccnc3cc(Cl)ccc23)CC1 (configuration not stated) | 98 % of control | 97 % of control | – | – | –
NC(=O)C(Cc1ccc(O)cc1)NC(=O)OCc1ccccc1 (configuration not stated) | 97 % of control | 92 % of control | 97 % of control | – | –
Nc1nnc(-c2ccc(Nc3nc4ccccc4[nH]3)c([N+](=O)[O-])c2)s1 | – | – | – | 98 % of control | 101 % of control
